Data as given in patent US8415342B2, “Besifloxacin ophthalmic composition for the treatment or control of infection” (Bausch & Lomb Incorporated, priority 2008, dated 2013).
≈ marks a conversion by molar mass, not a printed value. Like-named read-outs stand apart in the source and are kept apart here.

Assays:
Format in all cases: cell-based
Streptococcus pyogenes = experiment: MIC, CLSI broth microdilution, clinical isolates; settings: Streptococcus pyogenes (N = 101)
Staphylococcus aureus = experiment: MIC, CLSI broth microdilution, clinical isolates; settings: for MIC50 / MIC90: Staphylococcus aureus
Morganella morganii = experiment: MIC, CLSI broth microdilution, clinical isolates; settings: Morganella morganii (N = 51)
Moraxella catarrhalis = experiment: MIC, CLSI broth microdilution, clinical isolates; settings: Moraxella catarrhalis (N = 101)
Citrobacter koseri = experiment: MIC, CLSI broth microdilution, clinical isolates; settings: Citrobacter koseri (N = 100)
Streptococcus agalactiae = experiment: MIC, CLSI broth microdilution, clinical isolates; settings: Streptococcus agalactiae (N = 100)
[1] = tested on: Staphylococcus haemolyticus; experiment: MIC, CLSI broth microdilution, clinical isolates; settings: Staphylococcus haemolyticus (N = 101)
[2] = tested on: Lancefield group C, F, G streptococci; experiment: MIC, CLSI broth microdilution, clinical isolates; settings: G streptococci (N = 50)
[3] = tested on: Staphylococcus lugdunensis; experiment: MIC, CLSI broth microdilution, clinical isolates; settings: Staphylococcus lugdunensis (N = 15)
[4] = tested on: Staphylococcus epidermidis; experiment: MIC, CLSI broth microdilution, clinical isolates; settings: for MIC50: Staphylococcus epidermidis
Klebsiella oxytoca = experiment: MIC, CLSI broth microdilution, clinical isolates; settings: Klebsiella oxytoca (N = 50)
Staphylococcus warneri = experiment: MIC, CLSI broth microdilution, clinical isolates; settings: Staphylococcus warneri (N = 50)
Viridans streptococci = experiment: MIC, CLSI broth microdilution, clinical isolates; settings: Viridans streptococci (N = 156)
[5] = tested on: Staphylococcus saprophyticus; experiment: MIC, CLSI broth microdilution, clinical isolates; settings: Staphylococcus saprophyticus (N = 101)
Legionella pneumophila = experiment: microbe, parasite or virus in culture
Haemophilus influenzae = experiment: MIC, CLSI broth microdilution, clinical isolates; settings: for MIC50 / MIC90: Haemophilus influenzae
Streptococcus pneumoniae = experiment: MIC, CLSI broth microdilution, clinical isolates
Staphylococcus hominis = experiment: MIC, CLSI broth microdilution, clinical isolates; settings: Staphylococcus hominis (N = 50)
[6] = Staphylococcus aureus (CNS, N = 16)
[7] = Staphylococcus aureus (CS, N = 14)
[8] = Staphylococcus aureus (MSSA, N = 19)
[9] = Staphylococcus aureus (all phenotypes, N = 30)
[10] = MRSA, Staphylococcus aureus (MRSA, N = 11)
[11] = MSSA, Staphylococcus aureus (MSSA, N = 19)
[12] = Staphylococcus epidermidis (CNS, N = 6)
[13] = Staphylococcus epidermidis (CS, N = 9)
[14] = Staphylococcus epidermidis (MRSE, N = 9)
[15] = Staphylococcus epidermidis (MSSE, N = 6)
[16] = Staphylococcus epidermidis (all phenotypes, N = 15)
[17] = Haemophilus influenzae (all phenotypes, N = 40)
[18] = Haemophilus influenzae (bla negative, N = 24)
[19] = Haemophilus influenzae (bla positive, N = 16)
[20] = Streptococcus pneumoniae (PSSP, N = 31)

## NC[C@H]1O[C@H](O[C@H]2[C@H](O)[C@@H](O[C@H]3O[C@H](CO)[C@@H](O)[C@H](N)[C@H]3O)[C@H](N)C[C@@H]2N)[C@H](N)C[C@@H]1O [Tobramycin]
Streptococcus pyogenes
  MIC Range: 4 to 64 µg/mL
Streptococcus pyogenes; read-out: MIC50
  MIC50: 16 µg/mL (≈ 34.2 µM)
Streptococcus pyogenes; read-out: MIC90
  MIC90: 16 µg/mL (≈ 34.2 µM)
Staphylococcus aureus; [6]
  % S: 68.8%
  MIC50: 0.5 µg/mL (≈ 1.07 µM)
  MIC90: > 32 µg/mL
Staphylococcus aureus; [7]
  % S: 92.9%
  MIC Range: 0.12 to 8 µg/mL
  MIC50: 0.25 µg/mL (≈ 0.535 µM)
  MIC90: 1 µg/mL (≈ 2.14 µM)
Staphylococcus aureus; Staphylococcus aureus (MRSA, N = 11)
  % S: 54.5%
Staphylococcus aureus; [8]
  % S: 94.7%
  MIC Range: 0.12 to 8 µg/mL
Staphylococcus aureus; [9]
  % S: 80.0%
  MIC50: 0.5 µg/mL (≈ 1.07 µM)
  MIC90: > 32 µg/mL
Staphylococcus aureus; [10]
  MIC50: 1 µg/mL (≈ 2.14 µM)
  MIC90: > 32 µg/mL
Staphylococcus aureus; [11]
  MIC50: 0.25 µg/mL (≈ 0.535 µM)
  MIC90: 1 µg/mL (≈ 2.14 µM)
Morganella morganii
  % S: 90.2%
  MIC50: 1 µg/mL (≈ 2.14 µM)
  MIC90: 4 µg/mL (≈ 8.56 µM)
  MIC Range: 0.25 to 32 µg/mL
Moraxella catarrhalis
  MIC50: 0.25 µg/mL (≈ 0.535 µM)
  MIC90: 0.25 µg/mL (≈ 0.535 µM)
  MIC Range: 0.03 to 0.5 µg/mL
Citrobacter koseri
  % S: 99.0%
  MIC50: 0.5 µg/mL (≈ 1.07 µM)
  MIC90: 1 µg/mL (≈ 2.14 µM)
  MIC Range: 0.25 to 16 µg/mL
Streptococcus agalactiae; read-out: MIC50
  MIC50: 32 µg/mL (≈ 68.4 µM)
Streptococcus agalactiae; read-out: MIC90
  MIC90: 64 µg/mL (≈ 137 µM)
[1]
  % S: 64.4%
  MIC50: 2 µg/mL (≈ 4.28 µM)
  MIC90: 32 µg/mL (≈ 68.4 µM)
[2]
  MIC Range: 2 to 32 µg/mL
[2]; read-out: MIC50
  MIC50: 8 µg/mL (≈ 17.1 µM)
[2]; read-out: MIC90
  MIC90: 16 µg/mL (≈ 34.2 µM)
[3]
  % S: 60.0%
  MIC50: 0.12 µg/mL (≈ 0.257 µM)
  MIC90: 32 µg/mL (≈ 68.4 µM)
[4]; [12]
  % S: 83.3%
  MIC Range: 0.06 to 16 µg/mL
  MIC50: 2 µg/mL (≈ 4.28 µM)
[4]; [13]
  % S: 88.9%
  MIC Range: ≦0.008-8 μg/mL
  MIC50: 0.03 µg/mL (≈ 0.0642 µM)
[4]; [14]
  % S: 77.8%
  MIC Range: 0.03 to 16 µg/mL
[4]; [15]
  % S: 100.0%
  MIC Range: ≦0.008-0.06 μg/mL
  MIC50: 0.03 µg/mL (≈ 0.0642 µM)
[4]; [16]
  % S: 86.7%
  MIC90: 8 µg/mL (≈ 17.1 µM)
  MIC Range: ≦0.008-16 μg/mL
  MIC50: 0.06 µg/mL (≈ 0.128 µM)
[4]; MRSE, Staphylococcus epidermidis (MRSE, N = 9)
  MIC50: 4 µg/mL (≈ 8.56 µM)
Klebsiella oxytoca
  % S: 96.0%
  MIC50: 0.5 µg/mL (≈ 1.07 µM)
  MIC90: 1 µg/mL (≈ 2.14 µM)
  MIC Range: 0.25 to 8 µg/mL
Staphylococcus warneri
  % S: 86.0%
  MIC50: 0.06 µg/mL (≈ 0.128 µM)
  MIC90: 8 µg/mL (≈ 17.1 µM)
Viridans streptococci
  MIC Range: 0.5 to 128 µg/mL
Viridans streptococci; read-out: MIC50
  MIC50: 16 µg/mL (≈ 34.2 µM)
Viridans streptococci; read-out: MIC90
  MIC90: 32 µg/mL (≈ 68.4 µM)
[5]
  % S: 99.0%
  MIC50: 0.015 µg/mL (≈ 0.0321 µM)
  MIC90: 0.06 µg/mL (≈ 0.128 µM)
  MIC Range: ≦0.008-32 μg/mL
Legionella pneumophila; Legionella pneumophila
  MIC50: 1 µg/mL (≈ 2.14 µM)
  MIC90: 2 µg/mL (≈ 4.28 µM)
Legionella pneumophila; Legionella pneumophila (N = 50)
  MIC Range: 0.25 to 4 µg/mL
Haemophilus influenzae; [17]
  MIC Range: 0.06 to 4 µg/mL
  MIC50: 2 µg/mL (≈ 4.28 µM)
  MIC90: 4 µg/mL (≈ 8.56 µM)
Haemophilus influenzae; [18]
  MIC Range: 0.06 to 4 µg/mL
  MIC50: 2 µg/mL (≈ 4.28 µM)
  MIC90: 4 µg/mL (≈ 8.56 µM)
Haemophilus influenzae; [19]
  MIC Range: 0.5 to 4 µg/mL
  MIC50: 2 µg/mL (≈ 4.28 µM)
  MIC90: 2 µg/mL (≈ 4.28 µM)
Streptococcus pneumoniae; Streptococcus pneumoniae (PISP, N = 2)
  MIC Range: 16 to 32 µg/mL
Streptococcus pneumoniae; Streptococcus pneumoniae (PRSP, N = 2)
  MIC Range: 16 to 32 µg/mL
Streptococcus pneumoniae; [20]
  MIC50: 16 µg/mL (≈ 34.2 µM)
  MIC90: 32 µg/mL (≈ 68.4 µM)
  MIC Range: 8 to 32 µg/mL
Streptococcus pneumoniae; Streptococcus pneumoniae (all phenotypes, N = 35)
  MIC Range: 8 to 32 µg/mL
Streptococcus pneumoniae; Streptococcus pneumoniae (all phenotypes, N = 35), read-out: MIC50
  MIC50: 16 µg/mL (≈ 34.2 µM)
Streptococcus pneumoniae; Streptococcus pneumoniae (all phenotypes, N = 35), read-out: MIC90
  MIC90: 32 µg/mL (≈ 68.4 µM)
Staphylococcus hominis
  % S: 32.0%
  MIC50: 16 µg/mL (≈ 34.2 µM)
  MIC90: 32 µg/mL (≈ 68.4 µM)
